For 19 compounds, IC50 results are on record in patent US12338256B2, “Aza-tetracyclic oxazepine compounds and uses thereof” (Genentech, Inc., priority 2022, dated 2025).

Molecules are shown by their SMILES. Where two headings read alike, the source gives them in different places.

The test system of assay [1] is HPAC (homozygous mutant KRAS G12D human pancreatic cell line). In words: KRAS 3D-Cell Proliferation Assay, HPAC (Example 503). The following applies: HPAC 3D culture, 7 days, CellTiter-Glo 3D, read-out: Prolif HPAC 3D ATP IC50. The format is cell-based. How it is done: (§1) Example 503: KRAS 3D-Cell Proliferation Assays. Cellular potencies of compounds are assessed by evaluating inhibition of proliferation in 3D cultures of homozygous mutant KRAS G12D human pancreatic cell lines (AsPC-1 and HPAC) as compared to a KRAS wild type human lung adenocarcinoma cell line (PC-9 and/or H1975). Cells are seeded into 384-well black round-bottom, ultra-low attachment assay plates in 50 uL cell growth medium (RPMI-1640 with 10% fetal bovine serum and 2 mM L-glutamine). After overnight incubation at 37° C. and 5% CO2, compounds solubilized in DMSO are added as dilution series to the wells in a total volume of 150 nL (0.3% DMSO final). The cells are incubated for 7 days at 37° C. and 5% CO2. Cell proliferation is quantitated by addition of 40 uL/well of CellTiter-GloÒ 3D (Promega), and the well contents are mixed 20× at high speed using liquid handling automation workstation (Bravo with 384-well head) and centrifuged at 1500 rpm for 2 minutes to eliminate bubbles. This reagent in combination with mechanical disruption releases the cellular ATP to promote activity in a luciferase-based enzyme/substrate chemiluminescent detection system. After a 30-minute incubation under ambient conditions with shaking and an additional 10 minutes without shaking, the luminescence is read on a plate reader (e.g., EnVision [PerkinElmer]). The results are normalized to percent inhibition based on the following control samples: DMSO (0% inhibition) and 1 μM staurosporine (100% inhibition). The normalized luminescence results are plotted against compound concentration, and the data are fit to a 4-parameter Hill equation to determine the IC50 values.
(In ATP-based viability assays light output follows the ATP content of the culture.)

In assay [2] the test system is H1975 (KRAS wild type human lung adenocarcinoma cell line). The assay can be described thus: KRAS 3D-Cell Proliferation Assay, H1975 (Example 503). The format is cell-based. Particulars: H1975 3D culture, 7 days, CellTiter-Glo 3D, read-out: Prolif H1975 3D ATP IC50. How it is done: as §1

In general, IC50 refers to the midpoint of a concentration-inhibition curve. Regarding `Cc1c(F)c(N)cc(-c2nc3c4c(nc(OC[C@@H]5CC[C@H]6C[C@@H](F)CN56)nc4c2F)N2C[C@H]4CC[C@H](N4)[C@H]2[C@H](C)O3)c1C(F)(F)F` (single isomer, unassigned) [152 (isomer 1)], the concentration for half-maximal inhibition (IC50) in assay [1] (Homo sapiens, HPAC, 168 h) stood at 17.4 nM; in assay [2] (Homo sapiens, NCI-H1975, 168 h), 787 nM.

Consider `Cc1c(F)c(N)cc(-c2nc3c4c(nc(OCC5CCC6CC(F)CN56)nc4c2F)N2CC4CCC(N4)C2C(C)O3)c1C(F)(F)F` (single isomer, unassigned) [152 (isomer 2)], for which the IC50 came to 299 nM in assay [1] (Homo sapiens, HPAC, 168 h) and 6330 nM in assay [2] (Homo sapiens, NCI-H1975, 168 h).

As for `Cc1c(F)c(N)cc(-c2nc3c4c(nc(OCC5CC(F)C6CCCN56)nc4c2F)N2C[C@H]4CC[C@H](N4)[C@H]2[C@H](C)O3)c1C(F)(F)F` (single isomer, unassigned) [160 (diast. 1)], the IC50 in assay [1] (Homo sapiens, HPAC, 168 h) turned out to be 8.07 nM; in assay [2] (Homo sapiens, NCI-H1975, 168 h) it was 1000 nM.

For `Cc1c(F)c(N)cc(-c2nc3c4c(nc(OCC56CCCN5CC(F)C6)nc4c2F)N2CCNCC2C(C)O3)c1C(F)(F)F` (single isomer, unassigned) [235 (isomer 1)], the IC50 amounted to 2420 nM in assay [1] (Homo sapiens, HPAC, 168 h) and 4340 nM in assay [2] (Homo sapiens, NCI-H1975, 168 h).

Regarding `Cc1c(F)c(N)cc(-c2nc3c4c(nc(OC[C@@]56CCCN5C[C@H](F)C6)nc4c2F)N2CCNC[C@H]2C(C)O3)c1C(F)(F)F` (single isomer, unassigned) [235 (isomer 2)], the IC50 in assay [1] (Homo sapiens, HPAC, 168 h) stood at 136 nM; in assay [2] (Homo sapiens, NCI-H1975, 168 h) it was 262 nM.

On to `Cc1c(F)c(N)cc(-c2nc3c4c(nc(OC[C@@]56CCCN5C[C@H](F)C6)nc4c2F)N2C[C@H]4CC[C@H](N4)C2C(C(F)F)O3)c1C(F)(F)F` (single isomer, unassigned) [238 (isomer 1)], for which the IC50 is 2000 nM in assay [1] (Homo sapiens, HPAC, 168 h) and 13500 nM in assay [2] (Homo sapiens, NCI-H1975, 168 h).

For the compound `Cc1nc(N)cc(-c2nc3c4c(nc(OC[C@@]56CCN5CC(F)(F)C6)nc4c2F)N2C[C@H]4CC[C@H](N4)[C@H]2[C@H](C(F)(F)F)O3)c1C(F)(F)F` (single isomer, unassigned) [252 (isomer 1)], the half-inhibitory concentration (IC50) in assay [1] (Homo sapiens, HPAC, 168 h) was determined as 20.4 nM; in assay [2] (Homo sapiens, NCI-H1975, 168 h), 7710 nM.

`Cc1nc(N)cc(-c2nc3c4c(nc(OCC56CCN5CC(F)(F)C6)nc4c2F)N2C[C@H]4CC[C@H](N4)[C@H]2[C@H](C(F)(F)F)O3)c1C(F)(F)F` (single isomer, unassigned) [252 (isomer 2)]: the IC50 was 119 nM in assay [1] (Homo sapiens, HPAC, 168 h) and 20000 nM in assay [2] (Homo sapiens, NCI-H1975, 168 h).

Take `Cc1nc(N)cc(-c2nc3c4c(nc(OCC56CCCN5CC(F)C6)nc4c2F)N2CC4CCC(N4)[C@H]2[C@@H](C(F)(F)F)O3)c1C(F)(F)F` (stereo in doubt) [Compound 243, 4-((6R,9S)-1-fluoro-12-(((2S,7aR)-2-fluorotetrahydro-1H-pyrrolizin-7a(5H)-yl)methoxy)-5-(trifluoromethyl)-5a,6,7,8,9,10-hexahydro-5H-4-oxa-3,10a,11,13,14-pentaaza-6,9-methanonaphtho[1,8-ab]heptalene-2-yl)-6-methyl-5-(trifluoromethyl)pyridin-2-amine]: the IC50 in assay [1] (Homo sapiens, HPAC, 168 h) turned out to be 2000 nM; in assay [2] (Homo sapiens, NCI-H1975, 168 h), 20000 nM.

As to `Cc1c(F)c(N)cc(-c2nc3c4c(nc(OC[C@]5(CN6CCOCC6)CC5(F)F)nc4c2F)N2C[C@H]4CC[C@H](N4)[C@H]2[C@H](C)O3)c1C(F)(F)F` [167 a], the IC50 in assay [1] was 1.58 nM; in assay [2], 1140 nM.

With `Cc1c(F)c(N)cc(-c2nc3c4c(nc(OC[C@@]56CCCN5C[C@H](F)C6)nc4c2F)N2C[C@H]4CC[C@H](N4)[C@H]2[C@H](C)O3)c1C=O` [Compound 59, 4-Amino-3-fluoro-6-((5S,5aS,6S,9R)-1-fluoro-12-(((2R,7aS)-2-fluorotetrahydro-1H-pyrrolizin-7a(5H)-yl)methoxy)-5-methyl-5a,6,7,8,9,10-hexahydro-5H-4-oxa-3,10a,11,13,14-pentaaza-6,9-methanonaphtho[1,8-ab]heptalen-2-yl)-2-methylbenzaldehyde], the IC50 in assay [1] (Homo sapiens, HPAC, 168 h) stood at 117 nM; in assay [2] (Homo sapiens, NCI-H1975, 168 h), 10500 nM.

On to `Cc1cc(N)cc(-c2nc3c4c(nc(OC[C@@H]5CC[C@H]6COCCN65)nc4c2F)N2C[C@H]4CC[C@H](N4)[C@H]2[C@H](C)O3)c1C(F)(F)F` [Compound 67, 3-((5S,5aS,6S,9R)-1-Fuoro-1-(((6S,8aS)-hexahydro-1H-pyrrolo[2,1-c][1,4]oxazin-6-yl)methoxy)-5-methyl-5a,6,7,8,9,10-hexahydro-5H-4-oxa-3,10a,11,13,14-pentaaza-6,9-methanonaphtho[1,8-ab]heptalen-2-yl)-5-methyl-4-(trifluoromethyl)aniline], for which the concentration for half-maximal inhibition (IC50) in assay [1] (Homo sapiens, HPAC, 168 h) stood at 2.79 nM; in assay [2] (Homo sapiens, NCI-H1975, 168 h), 639 nM.

Take `Cc1cc(N)cc(-c2nc3c4c(nc(OC[C@@]56CCCN5CC5(CC5(F)F)C6)nc4c2F)N2C[C@H]4CC[C@H](N4)[C@H]2[C@H](C)O3)c1C(F)(F)F` (stereo partly drawn) [Compound 68, 3-((5S,5aS,6S,9R)-12-(((7a′S)-2,2-Difluorodihydro-1′H,3′H-spiro[cyclopropane-1,2′-pyrrolizin]-7a′(5′H)-yl)methoxy)-1-fluoro-5-methyl-5a,6,7,8,9,10-hexahydro-5H-4-oxa-3,10a,11,13,14-pentaaza[6,9]methanonaphtho[1,8-ab]heptalen-2-yl)-5-methyl-4-(trifluoromethyl)aniline]: the IC50 in assay [1] (Homo sapiens, HPAC, 168 h) stood at 0.205 nM; in assay [2] (Homo sapiens, NCI-H1975, 168 h), 146 nM.

Regarding `C[C@@H]1Oc2nc(-c3cc(N)ccc3C(F)(F)F)c(F)c3nc(OC[C@@]45CCCN4C[C@H](F)C5)nc(c23)N2C[C@H]3CC[C@H](N3)[C@@H]12` [Compound 72, 3-((5S,5aS,6S,9R)-1-Fluoro-12-(((2R,7aS)-2-fluorotetrahydro-1H-pyrrolizin-7a(5H)-yl)methoxy)-5-methyl-5a,6,7,8,9,10-hexahydro-5H-4-oxa-3,10a,11,13,14-pentaaza-6,9-methanonaphtho[1,8-ab]heptalen-2-yl)-4-(trifluoromethyl)aniline], the concentration for half-maximal inhibition (IC50) in assay [1] (Homo sapiens, HPAC, 168 h) was 3.16 nM; in assay [2] (Homo sapiens, NCI-H1975, 168 h), 1060 nM.

With `C[C@@H]1Oc2nc(-c3cc(N)c(F)cc3C(C)(F)F)c(F)c3nc(OC[C@@]45CCCN4C[C@H](F)C5)nc(c23)N2C[C@H]3CC[C@H](N3)[C@@H]12` [Compound 73, 4-(1,1-difluoroethyl)-2-fluoro-5-((5S,5aS,6S,9R)-1-fluoro-12-(((2R,7aS)-2-fluorotetrahydro-1H-pyrrolizin-7a(5H)-yl)methoxy)-5-methyl-5a,6,7,8,9,10-hexahydro-5H-4-oxa-3,10a,11,13,14-pentaaza-6,9-methanonaphtho[1,8-ab]heptalen-2-yl)aniline], the IC50 in assay [1] (Homo sapiens, HPAC, 168 h) is 16.3 nM; in assay [2] (Homo sapiens, NCI-H1975, 168 h) it was 4090 nM.

With `Cc1cc(N)cc(-c2nc3c4c(nc(OC[C@@]56CCCN5C[C@H](F)C6)nc4c2F)N2C[C@H]4CC[C@H](N4)[C@H]2[C@H](C)O3)c1Cl` [Compound 74, 4-Chloro-3-((5S,5aS,6S,9R)-1-fluoro-12-(((2R,7aS)-2-fluorotetrahydro-1H-pyrrolizin-7a(5H)-yl)methoxy)-5-methyl-5a,6,7,8,9,10-hexahydro-5H-4-oxa-3,10a,11,13,14-pentaaza-6,9-methanonaphtho[1,8-ab]heptalen-2-yl)-5-methylaniline], the IC50 stood at 5.7 nM in assay [1] (Homo sapiens, HPAC, 168 h) and 2040 nM in assay [2] (Homo sapiens, NCI-H1975, 168 h).

In the case of `C[C@@H]1Oc2nc(-c3cc(O)cc4ccc(F)c(F)c34)c(F)c3nc(OC[C@@]45CCCN4C[C@H](F)C5)nc(c23)N2C[C@H]3CC[C@H](N3)[C@@H]12` [Compound 82, 5,6-Difluoro-4-((5S,5aS,6S,9R)-1-fluoro-12-(((2R,7aS)-2-fluorotetrahydro-1H-pyrrolizin-7a(5H)-yl)methoxy)-5-methyl-5a,6,7,8,9,10-hexahydro-5H-4-oxa-3,10a,11,13,14-pentaaza-6,9-methanonaphtho[1,8-ab]heptalen-2-yl)naphthalen-2-ol], the concentration for half-maximal inhibition (IC50) came out at 20000 nM in assay [1] (Homo sapiens, HPAC, 168 h) and 20000 nM in assay [2] (Homo sapiens, NCI-H1975, 168 h).

For the compound `C[C@@H]1Oc2nc(-c3cc(N)cc4c3CCC4)c(F)c3nc(OC[C@@]45CCCN4C[C@H](F)C5)nc(c23)N2C[C@H]3CC[C@H](N3)[C@@H]12` [Compound 83, 7-((5S,5aS,6S,9R)-1-Fluoro-12-(((2R,7aS)-2-fluorotetrahydro-1H-pyrrolizin-7a(5H)-yl)methoxy)-5-methyl-5a,6,7,8,9,10-hexahydro-5H-4-oxa-3,10a,11,13,14-pentaaza-6,9-methanonaphtho[1,8-ab]heptalen-2-yl)-2,3-dihydro-1H-inden-5-amine], the IC50 amounted to 23.7 nM in assay [1] (Homo sapiens, HPAC, 168 h) and 2230 nM in assay [2] (Homo sapiens, NCI-H1975, 168 h).

Regarding `Cc1cc(N)c(F)c(-c2nc3c4c(nc(OC[C@@H]5CC[C@H]6COCCN65)nc4c2F)N2C[C@H]4CC[C@H](N4)[C@H]2[C@H](C)O3)c1C1CC1` [Compound 98, 4-Cyclopropyl-2-fluoro-3-((5S,5aS,6S,9R)-1-fluoro-12-(((6S,8aS)-hexahydro-1H-pyrrolo[2,1-c][1,4]oxazin-6-yl)methoxy)-5-methyl-5a,6,7,8,9,10-hexahydro-5H-4-oxa-3,10a,11,13,14-pentaaza-6,9-methanonaphtho[1,8-ab]heptalen-2-yl)-5-methylaniline], the IC50 in assay [1] (Homo sapiens, HPAC, 168 h) was found to be 26.2 nM; in assay [2] (Homo sapiens, NCI-H1975, 168 h), 2750 nM.
